Legend:
[1] = tested on: Glomerella lagenarium (Colletotrichum lagenarium); test: Glomerella Lagenarium (Colletotrichum Lagenarium)/Liquid Culture (Anthracnose); type: cell-based; details: Colletotrichum orbiculare, liquid culture, growth inhibition photometrically 3-4 days after application, compared to untreated control
Protocol: Glomerella Lagenarium (Colletotrichum Lagenarium)/Liquid Culture (Anthracnose)
(§1) Conidia of the fungus from cryogenic storage are directly mixed into nutrient broth (PDB potato dextrose broth). After placing a (DMSO) solution of test compound into a microtiter plate (96-well format), the nutrient broth containing the fungal spores is added. The test plates are incubated at 24° C. and the inhibition of growth is measured photometrically 3-4 days after application.

[2] = tested on: Mycosphaerella graminicola (Septoria tritici); test: microbe, parasite or virus in culture; type: cell-based; details: Zymoseptoria tritici, read-out: control of Mycosphaerella graminicola
Sclerotinia sclerotiorum = test: Sclerotinia sclerotiorum/Liquid Culture (Cottony Rot); type: cell-based; details: liquid culture, growth inhibition photometrically 3-4 days after application, compared to untreated control
Protocol: Sclerotinia sclerotiorum/Liquid Culture (Cottony Rot)
Mycelia fragments of a newly grown liquid culture of the fungus are directly mixed into nutrient broth (Vogels broth). After placing a (DMSO) solution of test compound into a microtiter plate (96-well format) the nutrient broth containing the fungal material is added. The test plates are incubated at 24° C. and the inhibition of growth is determined photometrically 3-4 days after application.

[3] = tested on: Magnaporthe grisea (Pyricularia oryzae); test: microbe, parasite or virus in culture; type: cell-based; details: read-out: control of Magnaporthe grisea
[4] = tested on: Monographella nivalis (Microdochium nivale); test: Monographella Nivalis (Microdochium Nivale)/Liquid Culture (Foot Rot Cereals); type: cell-based; details: liquid culture, growth inhibition photometrically 4-5 days after application, compared to untreated control
Protocol: Monographella Nivalis (Microdochium Nivale)/Liquid Culture (Foot Rot Cereals)
as §1, with “determined” for “measured”, “4-5” for “3-4”

[5] = tested on: Botryotinia fuckeliana (Botrytis cinerea); test: Botryotinia fuckeliana (Botrytis cinerea)/Liquid Culture (Gray Mould); type: cell-based; details: liquid culture, growth inhibition photometrically 3-4 days after application, compared to untreated control
Protocol: Biological Examples Botryotinia fuckeliana (Botrytis cinerea)/Liquid Culture (Gray Mould)
as §1, with “(Vogels” for “(PDB potato dextrose”, “determined” for “measured”

Gaeumannomyces graminis = test: Gaeumannomyces Graminis/Liquid Culture (Take-all of Cereals); type: cell-based; details: liquid culture, growth inhibition photometrically 4-5 days after application, compared to untreated control
Protocol: Gaeumannomyces Graminis/Liquid Culture (Take-all of Cereals)
as §1, with “Mycelial fragments of” for “Conidia of”, “storage were” for “storage are”, “is determined” for “is measured”, “photometrically 4-5” for “photometrically 3-4”

Fusarium culmorum = test: microbe, parasite or virus in culture; type: cell-based; details: read-out: control of Fusarium culmorum
[6] = tested on: Mycosphaerella arachidis (Cercospora arachidicola); test: Mycosphaerella arachidis (Cercospora arachidicola)/Liquid Culture (Early Leaf Spot); type: cell-based; details: 20 ppm; liquid culture, growth inhibition photometrically 4-5 days after application; compared to untreated control
Protocol: Mycosphaerella arachidis (Cercospora arachidicola)/Liquid Culture (Early Leaf Spot)
as §1, with “determined” for “measured”, “4-5” for “3-4”

Row | Structure (SMILES) | inhibition of growth at 20 ppm [1] [%] | inhibition of growth at 20 ppm [2] [%] | inhibition of growth at 20 ppm (Sclerotinia sclerotiorum) [%] | inhibition of growth at 20 ppm [3] [%] | melting point [°C] | inhibition of growth at 20 ppm [4] [%] | inhibition of growth at 20 ppm [5] [%] | inhibition of growth at 20 ppm (Gaeumannomyces graminis) [%] | inhibition of growth at 20 ppm (Fusarium culmorum) [%] | control of Mycosphaerella arachidis [6]
1 | Cc1ccc2c(C3=NC(C)(C)C(C)(C)c4c(F)cccc43)n(C)nc2c1C [Compound E-30, 5-fluoro-3,3,4,4-tetramethyl-1-(2,6,7-trimethylindazol-3-yl)isoquinoline] | ≥ 80 | ≥ 80 | ≥ 80 | ≥ 80 | 111 to 113 | ≥ 80 | ≥ 80 |  |  | 
2 | Cc1ccc2c(C3=NC(C)(C)C(C)(C)c4c(F)cccc43)n(C)nc2c1 [Compound E-28, 1-(2,6-dimethylindazol-3-yl)-5-fluoro-3,3,4,4-tetramethyl-isoquinoline] | ≥ 80 | ≥ 80 | ≥ 80 | ≥ 80 | 137 to 138 | ≥ 80 | ≥ 80 | ≥ 80 | ≥ 80 | 
3 | Cc1cccc2c(C3=NC(C)(C)C(C)(C)c4c(F)cccc43)n(C)nc12 [Compound E-9, 1-(2,7-dimethylindazol-3-yl)-5-fluoro-3,3,4,4-tetramethyl-isoquinoline] | ≥ 80 | ≥ 80 | ≥ 80 | ≥ 80 |  | ≥ 80 | ≥ 80 | ≥ 80 | ≥ 80 | 
4 | Cc1ccc2c(C3=NC(C)(C)C(C)(C)c4c(F)cccc43)n(C)nc2c1Cl [Compound E-27, 1-(7-chloro-2,6-dimethyl-indazol-3-yl)-5-fluoro-3,3,4,4-tetramethyl-isoquinoline] | ≥ 80 | ≥ 80 | ≥ 80 | ≥ 80 | 113 to 116 | ≥ 80 | ≥ 80 | ≥ 80 | ≥ 80 | 
5 | Cn1nc2c(Cl)c(Cl)ccc2c1C1=NC(C)(C)C(C)(C)c2c(F)cccc21 [Compound E-23, 1-(6,7-dichloro-2-methyl-indazol-3-yl)-5-fluoro-3,3,4,4-tetramethyl-isoquinoline] | ≥ 80 | ≥ 80 | ≥ 80 | ≥ 80 |  | ≥ 80 | ≥ 80 | ≥ 80 |  | 
6 | Cn1nc2c(Cl)cccc2c1C1=NC(C)(C)C(C)(C)c2c(F)cccc21 [Compound E-22, 1-(7-chloro-2-methyl-indazol-3-yl)-5-fluoro-3,3,4,4-tetramethyl-isoquinoline] |  | ≥ 80 |  | ≥ 80 | 45 to 47 | ≥ 80 | ≥ 80 |  | ≥ 80 | 
7 | Cn1nc2ccccc2c1C1=NC(C)(C)C(C)(C)c2c(F)cccc21 [Compound E-1, 5-fluoro-3,3,4,4-tetramethyl-1-(2-methylindazol-3-yl)isoquinoline] | ≥ 80 | ≥ 80 | ≥ 80 | ≥ 80 | 113 to 115 | ≥ 80 | ≥ 80 | ≥ 80 | ≥ 80 | at least 80%

Source: patent US10329272B2 (priority 2015, dated 2019)
